Test results taken from the NIST ThermoML archive (doi:10.1016/j.jct.2015.09.028).
± gives the expanded uncertainty stated by the source.

Assays:
[1] = xn = mol fraction of the nth substance listed; conditions: 93 kPa, Liquid; for viscosity: Concentric cylinders viscometry; for mass density: Vibrating tube method
[2] = molar heat capacity at constant pressure; xn = mol fraction of the nth substance listed; conditions: Liquid, Flow calorimetry

c1ccc(Oc2ccccc2)cc1 [diphenyl ether] + c1ccc(-c2ccccc2)cc1
[1]
Conditions	mass density, x1 = 0.55 [kg/m3]	mass density, x1 = 0.705 [kg/m3]	mass density, x1 = 0.85 [kg/m3]	mass density, x1 = 1 [kg/m3]	viscosity, x1 = 0.55 [mPa·s]	viscosity, x1 = 0.705 [mPa·s]	viscosity, x1 = 0.85 [mPa·s]	viscosity, x1 = 1 [mPa·s]
288.15 K	–	1066.7 ± 1	–	–	–	5.12 ± 0.1	–	–
293.15 K	–	1062.4 ± 1	–	–	–	4.39 ± 0.09	–	–
298.15 K	–	1058.2 ± 1	1064.2 ± 1	–	–	3.81 ± 0.08	3.8 ± 0.08	–
303.15 K	–	1053.9 ± 1	1060 ± 1	1065.5 ± 1	–	3.34 ± 0.07	3.34 ± 0.07	3.33 ± 0.07
308.15 K	1043.7 ± 1	1049.7 ± 1	1055.7 ± 1	1061.2 ± 1	2.99 ± 0.06	2.96 ± 0.06	2.96 ± 0.06	2.96 ± 0.06
313.15 K	1039.5 ± 1	1045.4 ± 1	1051.3 ± 1	1056.9 ± 1	2.7 ± 0.06	2.64 ± 0.05	2.65 ± 0.05	2.65 ± 0.05
323.15 K	1031.1 ± 1	1037 ± 1	1042.7 ± 1	1048.2 ± 1	2.15 ± 0.04	2.15 ± 0.04	2.16 ± 0.04	2.17 ± 0.04
333.15 K	1022.6 ± 1	1028.5 ± 1	1034.1 ± 1	1039.6 ± 1	1.79 ± 0.04	1.79 ± 0.04	1.81 ± 0.04	1.82 ± 0.04
343.15 K	1014.1 ± 1	1020 ± 1	1025.5 ± 1	1030.9 ± 1	1.52 ± 0.03	1.52 ± 0.03	1.54 ± 0.03	1.54 ± 0.03
353.15 K	1005.6 ± 1	1011.5 ± 1	1016.9 ± 1	1022.3 ± 1	1.31 ± 0.03	1.31 ± 0.03	1.32 ± 0.03	1.33 ± 0.03
363.15 K	997.5 ± 1	1003 ± 1	1008.3 ± 1	1013.7 ± 1	1.14 ± 0.02	1.14 ± 0.02	1.15 ± 0.02	1.16 ± 0.02
373.15 K	989.2 ± 1	994.9 ± 1	999.8 ± 1	1005.2 ± 1	1 ± 0.02	1.01 ± 0.02	1.01 ± 0.02	1.03 ± 0.02

molar heat capacity at constant pressure [J/K/mol], [2]
Conditions	100 kPa	5000 kPa	10000 kPa	15000 kPa	20000 kPa	25000 kPa
293.15 K, x1 = 0.705	260.48 ± 5.3	258.49 ± 5.1	256.34 ± 5.1	255.18 ± 5.1	253.86 ± 5.1	252.7 ± 5.1
313.15 K, x1 = 0.55	273.53 ± 5.5	272.22 ± 5.4	270.76 ± 5.4	269.94 ± 5.4	269.29 ± 5.4	268.96 ± 5.4
313.15 K, x1 = 0.705	270.74 ± 5.5	269.58 ± 5.5	267.76 ± 5.3	267.1 ± 5.3	265.94 ± 5.3	265.11 ± 5.3
313.15 K, x1 = 0.85	272.02 ± 5.5	270.67 ± 5.4	270.17 ± 5.4	269.67 ± 5.4	269.5 ± 5.4	269.33 ± 5.4
313.15 K, x1 = 1	274.37 ± 5.4	273.52 ± 5.4	273.18 ± 5.4	272.5 ± 5.4	272.16 ± 5.4	–
333.15 K, x1 = 0.55	285.75 ± 5.7	284.45 ± 5.7	284.29 ± 5.7	283.96 ± 5.7	283.8 ± 5.7	–
333.15 K, x1 = 0.705	279.34 ± 5.6	278.02 ± 5.6	276.86 ± 5.6	275.54 ± 5.5	274.21 ± 5.5	273.39 ± 5.5
333.15 K, x1 = 0.85	285.1 ± 5.7	284.6 ± 5.7	284.27 ± 5.7	284.1 ± 5.7	283.76 ± 5.7	283.43 ± 5.7
333.15 K, x1 = 1	286.97 ± 5.8	285.95 ± 5.8	284.93 ± 5.8	284.59 ± 5.8	283.39 ± 5.6	282.71 ± 5.6
353.15 K, x1 = 0.55	295.7 ± 5.9	294.88 ± 5.9	294.55 ± 5.9	294.39 ± 5.9	293.25 ± 5.9	293.09 ± 5.9
353.15 K, x1 = 0.705	290.93 ± 5.8	289.27 ± 5.8	287.62 ± 5.8	286.96 ± 5.8	285.47 ± 5.8	283.98 ± 5.6
353.15 K, x1 = 0.85	299.2 ± 6	297.86 ± 6	297.69 ± 6	297.35 ± 6	297.19 ± 6	296.68 ± 5.9
353.15 K, x1 = 1	299.05 ± 6	298.03 ± 6	296.84 ± 6	296.33 ± 6	295.48 ± 6	294.63 ± 6
